According to patent publication US5773646A, “Meta-substituted phenylene derivatives” (G. D. Searle & Co., priority 1997, dated 1998):
Structures can show the parent of a compound that is named as a salt.

Columns and labels:
[1] = biological target: T1, Human fibrinogen receptor (αIIb β3) (Homo sapiens, UniProt P05106+P08514); assay: Purified IIb/IIIa receptor assay (solid phase receptor assay, biotinylated vitronectin competition); conditions: inhibition of 50% of the maximum binding of biotinylated vitronectin; 1 nM labeled ligand, 2 hours, room temperature, highest concentration of test compound 1.0×10^-4 M
T1 construct: Human fibrinogen receptor (αIIb β3) was purified from outdated platelets; from tissue; host or cells: outdated human platelets
Description: PURIFIED IIb/IIIa RECEPTOR ASSAY Human fibrinogen receptor (αIIb β3) was purified from outdated platelets. (Pytela, R., Pierschbacher, […]., Suzuki, S., and […] acid adhesion receptors", Methods in Enzymology 144(1987):475-489.) Human vitronectin was purified from fresh frozen plasma as described in Yatohgo, T., Izumi, M., Kashiwagi, H., and Hayashi, M., "Novel purification of vitronectin from human plasma by heparin affinity chromatography," Cell Structure and Function 13(1988):281-292. Biotinylated human vitronectin was prepared by coupling NHS-biotin from Pierce Chemical Company (Rockford, Ill.) to purified vitronectin as previously described. (Charo, […]., Phillips, D. R., Hsu, M. A., Scarborough, R. M., "Inhibition of fibrinogen binding to GP IIb/IIIa by a GP IIIa peptide", J. Biol. Chem. 266(3)(1991):1415-1421.) Assay buffer, OPD substrate tablets, and RIA grade BSA were obtained from Sigma (St. Louis, Mo.). Anti-biotin antibody was obtained from Calbiochem (La Jolla, Calif.). Linbro microtiter plates were obtained from Flow Labs (McLean, Va.). ADP reagent was obtained from Sigma (St. Louis, Mo.). Solid Phase Receptor Assays This assay is essentially the same reported in […]., Bader, R., Byers-Ward, […]., Plow, E. F. and Ruggeri, Z. M., "Increased surface expression of the membrane glycoprotein IIb/IIIa complex induced by platelet activation: Relationships to the binding of fibrinogen and platelet aggregation", Blood 70(1987):475-483. The purified human fibrinogen receptor (αIIb β3) was diluted from stock solutions to 1.0 μg/mL in Tris-buffered saline containing 1.0 mM Ca^++, Mg^++, and Mn^++, pH 7.4 (TBS^+++). The diluted receptor was immediately transferred to Linbro microtiter plates at 100 μL/well (100 ng receptor/well). The plates were sealed and incubated overnight at 4° C. to allow the receptor to bind to the wells. All remaining steps were at room temperature. The assay plates were emptied and 200 μL of 1% RIA grade BSA in TBS^+++ (TBS^+++ /BSA) were added to block exposed plastic surfaces. Following a 2 hour incubation, the assay plates were washed with TBS^+++ using a 96 well plate washer. Logarithmic serial dilution of the test compound and controls were made starting at a stock concentration of 2 mM and using 2 nM biotinylated vitronectin in TBS^+++ /BSA as the diluent. This premixing of labeled ligand with test (or control) ligand, and subsequent transfer of 50 μL aliquots to the assay plate was carried out with a CETUS Propette robot; the final concentration of the labeled ligand was 1 nM and the highest concentration of test compound was 1.0×10^-4 M. The competition occurred for two hours after which all wells were washed with a plate washer as before. Affinity purified horseradish peroxidase labeled goat antibiotin antibody was diluted 1:3000 in TBS^+++ /BSA and 125 μL were added to each well. After 30 minutes, the plates were washed and incubated with […]/H2 O2 substrate in 100 mM/L citrate buffer, pH 5.0. The plate was read with a microtiter plate reader at a wavelength of 450 nm and when the maximum-binding control wells reached an absorbance of about 1.0, the final A450 were recorded for analysis. The data were analyzed using a macro written for use with the EXCELTM spreadsheet program. The mean, standard deviation, and %CV were determined for duplicate concentrations. The mean A450 values were normalized to the mean of four maximum-binding controls (no competitor added)(B-MAX). The normalized values were subjected to a four parameter curve fit algorithm, [Robard et al., Int.

[2] = biological target: T2, Human vitronectin receptor (αv β3) (Homo sapiens, UniProt P05106+P06756); assay: Vitronectin adhesion assay (solid phase receptor assay, biotinylated vitronectin competition); type: binding; conditions: inhibition of 50% of the maximum binding of biotinylated vitronectin; 1 nM labeled ligand, 2 hours, room temperature, highest concentration of test compound 1.0×10^-4 M; read-out: AvB3 IC50
T2 construct: Human vitronectin receptor(αv β3) was purified from human placenta; from tissue; host or cells: human placenta
Protocol: VITRONECTIN ADHESION ASSAY Human vitronectin receptor(αv β3) was purified from human placenta as previously described [Pytela et al., Methods in Enzymology, 144:475-489 (1987)). Human vitronectin was purified from fresh frozen plasma as previously described [Yatohgo et al., Cell Structure and Function, 13:281-292 (1988)]. Biotinylated human vitronectin was prepared by coupling NHS-biotin from Pierce Chemical Company (Rockford, Ill.) to purified vitronectin as previously described [Charo et al., J. Biol. Chem., 266(3):1415-1421 (1991)]. Assay buffer, OPD substrate tablets, and RIA grade BSA were obtained from Sigma (St. Louis, Mo.). Anti-biotin antibody was obtained from Calbiochem (La Jolla, Calif.). Linbro microtiter plates were obtained from Flow Labs (McLean, Va.). ADP reagent was obtained from Sigma (St. Louis, Mo.). Solid Phase Receptor Assays This assay was essentially the same as previously reported [Niiya et al., Blood, 70:475-483 (1987)]. The purified human vitronectin receptor (αv β3) was diluted from stock solutions to 1.0 μg/mL in Tris-buffered saline containing 1.0 mM Ca^++, Mg^++, and Mn^++, pH 7.4 (TBS^+++). The diluted receptor was immediately transferred to Linbro microtiter plates at 100 μL/well (100 ng receptor/well). The plates were sealed and incubated overnight at 4° C. to allow the receptor to bind to the wells. All remaining steps were at room temperature. The assay plates were emptied and 200 μL of 1% RIA grade BSA in TBS^+++ (TBS^+++ /BSA) were added to block exposed plastic surfaces. Following a 2 hour incubation, the assay plates were washed with TBS^+++ using a 96 well plate washer. Logarithmic serial dilution of the test compound and controls were made starting at a stock concentration of 2 mM and using 2 nM biotinylated vitronectin in TBS^+++ /BSA as the diluent. This premixing of labeled ligand with test (or control) ligand, and subsequent transfer of 50 μL aliquots to the assay plate was carried out with a CETUS Propette robot; the final concentration of the labeled ligand was 1 nM and the highest concentration of test compound was 1.0×10^-4 M. The competition occurred for two hours after which all wells were washed with a plate washer as before. Affinity purified horseradish peroxidase labeled goat antibiotin antibody was diluted 1:3000 in TBS^+++ /BSA and 125 μL were added to each well. After 30 minutes, the plates were washed and incubated with OPD/H2 O2 substrate in 100 mM/L Citrate buffer, pH 5.0. The plate was read with a microtiter plate reader at a wavelength of 450 nm and when the maximum-binding control wells reached an absorbance of about 1.0, the final A450 were recorded for analysis. The data were analyzed using a macro written for use with the EXCEL™ spreadsheet program. The mean, standard deviation, and %CV were determined for duplicate concentrations. The mean A450 values were normalized to the mean of four maximum-binding controls (no competitor added)(B-MAX). The normalized values were subjected to a four parameter curve fit algorithm [Rodbard et al., Int.

SMILES	IC50 [1] [nM]	IC50 [2] [nM]
N=C(N)Nc1cccc(S(=O)(=O)Cc2cccc(C(CC(=O)O)c3ccccc3)c2)c1 (stereo not drawn) [Example 89, 3-[[[3-[(aminoiminomethyl)amino]phenyl]sulfonyl]methyl]-β-phenylbenzenepropanoic Acid, Trifluoroacetate Salt]	799	4.56
N=C(N)Nc1cccc(NC(=O)Nc2cccc(OCC(=O)O)c2)c1 [Example 52, [3-[[[[3-[(aminoiminomethyl)amino]phenyl]amino]carbonyl]amino]phenoxy]acetic acid, trifluoroacetate salt]	39700	16600
CC(CC(=O)O)c1cccc(CNC(=O)c2cccc(NC(=N)N)c2)c1 (stereo not drawn) [Example 40, 3-[[[[3-[(aminoiminomethyl)amino]phenyl]carbonyl]amino]methyl]-β-methylbenzenepropanoic acid, trifluoroacetate salt]	2260	11.6
O=C(O)CC(c1cc(F)cc(F)c1)c1cccc(NS(=O)(=O)c2cccc(NC3=NCCCN3)c2)c1 (stereo not drawn) [Example 97, 3,5-difluoro-β-[3-[[[3-[(1,4,5,6-tetrahydropyrimidin-2-yl)amino]phenyl]sulfonyl]amino]phenyl]benzenepropanoic Acid, Bis(trifluoroacetate) Salt]	262	0.75
CCOC(=O)CC(c1ccccc1)c1cccc(CNC(=O)c2cccc(NC(=N)N)c2)c1 (stereo not drawn) [Example 37, ethyl 3-[[[[3-[(aminoiminomethyl)amino]phenyl]carbonyl]amino]methyl]-β-phenylbenzenepropanoate, trifluoroacetate salt]	79000	32200
O=C(O)CC(c1cc(F)cc(F)c1)c1cccc(NS(=O)(=O)c2cccc(NC(=S)NCc3ccccc3)c2)c1 (stereo not drawn) [Example 83, 3,5-difluoro-β-[3-[[[3-[[[(phenylmethyl)amino]thiocarbonyl]amino]phenyl]sulfonyl]amino]phenyl]benzenepropanoic Acid]	18900	122
O=C(O)CC(c1cc(F)cc(F)c1)c1cccc(CNC(=O)c2cccc(NC3=NCCCN3)c2)c1 (racemic) [Example 62, (±) 3,5-difluoro-β-[3-[[[[3-[(1,4,5,6-tetrahydropyrimidin-2-yl)amino]phenyl]carbonyl]amino]methyl]phenyl]benzenepropanoic acid, trifluoroacetate salt monohydrate]	1900	0.87
CCC(CC(=O)O)c1cccc(NS(=O)(=O)c2cccc(NC(=N)N)c2)c1 (stereo not drawn) [Example 94, 3-[[[3-[(aminoiminomethyl)amino]phenyl]sulfonyl]amino]-β-ethylbenzenepropanoic Acid, Trifluoroacetate Salt]	2050	12.1
CC(CC(=O)O)c1cccc(CNC(=O)c2cccc(NC(N)=NC#N)c2)c1 (racemic) [Example 64, (±) 3[[[[3-[[amino(cyanoimino)methyl]amino]phenyl]carbonyl]amino]methyl]-β-methylbenzenepropanoic acid]	26400	199
CC(=O)NC(Cc1cccc(CNC(=O)c2cccc(NC(=N)N)c2)c1)C(=O)O (centres unmarked) [Example 45, N-acetyl-3-[[[[3-[(aminoiminomethyl)amino]phenyl]carbonyl]amino]methyl)phenylalanine, bis(trifluoroacetate) salt]	1370	72.3
CCOC(=O)CCc1cccc(CNC(=O)c2cccc(NC(=N)N)c2)c1 [Example 34, ethyl 3-[[[[3-[(aminoiminomethyl)amino]phenyl]carbonyl]amino]methyl]benzenepropanoate, trifluoroacetate salt]	66100	2930
NC(=O)N=C(N)Nc1cccc(S(=O)(=O)Nc2cccc(C(CC(=O)O)c3cc(F)cc(F)c3)c2)c1 (stereo not drawn) [Example 91, β-[3-[[[3-[[amino[(aminocarbonyl)imino]methyl]amino]phenyl]sulfonyl]amino]phenyl]-3,5-difluorobenzenepropanoic Acid, Trifluoroacetate Salt]	1070	8.39
NC(=S)Nc1cccc(S(=O)(=O)Nc2cccc(C(CC(=O)O)c3ccccc3)c2)c1 (stereo not drawn) [Example 10, 3-[[[3-[(aminothioxomethyl)amino]phenyl]sulfonyl]amino]-β-phenylbenzenepropanoic acid]	5540	144
N=C(N)Nc1cccc(S(=O)(=O)Nc2cccc(C(CC(=O)O)c3ccccc3)c2)c1 (stereo not drawn) [Example 1, 3-[[[3-[(aminoiminomethyl)amino]phenyl]sulfonyl]amino]-β-phenylbenzenepropanoic acid, trifluoroacetate salt]	625	16.7
N=C(N)Nc1cccc(NC(=O)Nc2cccc(CCC(=O)O)c2)c1 [Example 51, 3-[[[[3-[(aminoiminomethyl)amino]phenyl]amino]carbonyl]amino]benzenepropanoic acid, trifluoroacetate salt]	10700	3090
O=C1CC(c2cccc(NS(=O)(=O)c3cccc(NC4=NCCN4)c3)c2)c2ccccc2O1 (centres unmarked) [Example 101, 3-[(4,5-dihydro-1H-imidazol-2-yl)amino]-N-[3-(3,4-dihydro-2-oxo-2H-benzopyran-4-yl)phenyl]benzenesulfonamide, Trifluoroacetate Salt]	3250	50.3
